According to article PMC11258689, “A Snake Venom Peptide and Its Derivatives Prevent Aβ42 Aggregation and Eliminate Toxic Aβ42 Aggregates In Vitro” (ACS Chemical Neuroscience, 2024):
Non-standard residues stand in square brackets, D forms with d. Residues, ends and D or L forms follow the SMILES beside them.

How the values were obtained:
Aβ42 oligomers = experiment: QIAD assay (Aβ42 aggregate size distribution, oligomer elimination); type: biochemical; settings: 20 μM peptide added to 80 μM Aβ42 (pre-incubated 2 h), 30 min; density gradient, RP-HPLC UV 214 nm; n = 3
Description: In order to evaluate the efficacy of the peptides in eliminating Aβ42 oligomers, QIAD assays were performed.[39] Briefly, lyophilized Aβ42 (80 μM) was incubated for 2 h in sodium phosphate buffer for Aβ42 oligomerization. Then, each peptide (20 μM) was added to the Aβ42 solution and incubated for 30 min. Finally, samples were added on top of an iodixanol density gradient (5–50% (w/v) (OptiPrep, Sigma-Aldrich, Darmstadt, Germany) and centrifuged for 3 h at 4 °C and 259,000 x g (Optima TL-100, Beckman Coulter, Brea, CA, USA). For the sample analysis, 14 fractions (140 μL each) were collected from top to bottom. The top fractions, named fractions 1–2, contained Aβ42-monomers; fractions 4–6 contained the Aβ42-oligomers, which are of special interest; and the bottom fractions 11–14 contained high molecular weight of aggregated Aβ42. Each density gradient fraction was analyzed by Reversed Phase Liquid Chromatography. For this an Agilent 1260 Infinity II (Santa Clara, California, USA) system was equipped with an Agilent Zorbax SB-300 C-8 5 μm, 4.6 × 250 mm Column (Santa Clara, California, USA) and a multi-wavelength detector set to acquire the UV absorbance at 214 nm. H2O + 0.1% trifluoroacetic acid (AppliChem, Darmstadt, Germany) and acetonitrile (Roth, Karlsruhe, Germany) + 0.1% trifluoroacetic acid were used as eluent A and B, respectively. The acquisition method consisted of an initial isocratic step at 15% B, followed by a gradient from 15% B to 45% B in 10 min and another isocratic step at 45% B. The column temperature was set to 80 °C for the entire analysis. This method ensured full separation of the iodixanol density gradient medium and Aβ42 in all fractions. Aβ42 peaks were analyzed and integrated by the Agilent OpenLab 2.5 software. All measurements were performed in triplicate (n = 3), and data are presented as mean ± SM.

Aβ42 aggregates = experiment: sFIDA assay of Aβ42 aggregate elimination; type: biochemical; settings: n = 3; for sFIDA signal reduction compared with the control: 50 nM peptide, 1 nM Aβ42 aggregates, overnight, room temperature, PBS, TIRFM pixel count
Description: To determine the influence of peptides on Aβ42 aggregates, an sFIDA assay was performed. The principle was previously described.[29] Therefore, we used pretreated 384 glass bottom microtiterplates (Sensoplate plus, Greiner Bio-One GmbH, Frickenhausen, Germany) to immobilize the capture-antibody Nab228 (Sigma-Aldrich, St. Louis, Missouri, USA) in a concentration of 2.5 μg/mL in 0.1 M carbonate buffer (Carl Roth, Karlsruhe, Germany). After an overnight incubation at 4 °C, the plate was washed five times with TBS and blocked with 80 μL of a 0.5% BSA solution in TBS with 0.03% ProClin 300 (Sigma-Aldrich, St. Louis, Mo, USA) for 1.5 h at room temperature.
The influence of 50 nM CDPs on 1 nM Aβ42 aggregates (prepared according to Ref ([70])) in PBS was determined by incubating them overnight at room temperature and 600 rpm. As a control, the same Aβ42 aggregates concentration was incubated without additions of peptides; instead, the buffer was added to contain the same end concentrations. The plate was washed as previously described, and 20 μL each of the peptide solution and a serial dilution of Aβ42 aggregates standards in PBS were added and incubated for 2 h at room temperature.
Afterward, 20 μL of 0.625 μg/mL IC-16 CF633 (Heinrich Heine Universität Düsseldorf, Germany) in TBS with 0.1% BSA was added to each well and incubated for 1 h at room temperature. This red fluorescently labeled detection antibody was labeled with CF633 succinimidyl ester (Sigma-Aldrich, St. Louis, Missouri, USA) after the manufacturer’s protocol. After a washing step to remove the redundant antibodies, 80 μL of TBS containing 0.03% Proclin were added.
By using a total internal reflection microscopy (TIRFM) (Leica Camera AG, Wetzlar, Germany), measurement (excitation: 635 nm, emission filter: 705/22 nm) was carried out with an oil immersion objective in 100× magnifications as previously described by Kass et al. 2022, and for each well, 25 of 14-bit grayscale images were measured with a size of 1000 × 1000 pixel each. […]

Aβ42 = target: T1, Aβ42 (Homo sapiens, UniProt P05067); experiment: Thioflavin T (ThT) assay of Aβ42 aggregation; type: biochemical; settings: 28 μM peptide, 10 μM Aβ42, 5 μM ThT, 24 h, room temperature; mean of n = 3
T1 construct: purchased Bachem, Bubendorf, Switzerland
T1 sequence (P05067 672-713 limits assumed): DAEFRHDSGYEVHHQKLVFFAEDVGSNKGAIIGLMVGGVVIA
Description: To evaluate the ability of the peptides to prevent Aβ42 aggregation, a ThT assay was performed. Aβ42 (10 μM), ThT (5 μM), and the peptides (28 μM) were incubated in 96-well plates for 24 h at room temperature in a plate reader (Clariostar, BMG Labtech, Ortenberg, Germany). During this time, the ThT fluorescence was measured every 6 minutes with an excitation of 440 nm and emission of 490 nm. The data were corrected considering the blank wells (without Aβ42 and the peptides). None of the peptides interact with ThT alone or has autofluorescence properties. All measurements were performed in triplicate (n = 3), and data are presented as mean ± SM.
Different concentrations were titrated to investigate CDP-1 and -2 dose dependency on the Aβ42 aggregate formation, and a ThT assay was performed as described before. The effect of 0, 0.5, 1, 3, 6, 13, and 28 μM peptides was tested against 10 μM Aβ42 over 24 h. All experiments were performed in triplicate (n = 3), and data are presented as mean ± SM.

SH-SY5Y cells = experiment: MTT cell viability assay, SH-SY5Y; type: cell-based, human; settings: 20 and 40 μM peptide, overnight, n = 3
Description: (§1) The cell viability assay was performed using the reduction of [3-(4,5-dimethylthiazol-2-yl)-2,5-diphenyl tetrazolium bromide-MTT] (Merck, Darmstadt, Germany) to investigate the cytotoxicity of the CDPs against SH-SY5Y (human neuroblastoma) and HEK293 (human embryonic kidney) cells. Both cell lines were purchased from the Leibniz Institute DSMZ-German collection of microorganisms and cell cultures GmbH. HEK293 cells were cultivated in Dulbecco’s modified Eagle’s medium high glucose (Merck, Darmstadt, Germany) containing 2% antibiotic solution of 10 000 units Penicillin, 10 mg streptomycin/ml (Merck, Darmstadt, Germany), and 10% fetal bovine serum (Merck, Darmstadt, Germany) at 37 °C with 5% CO2. […]
(§2) According to the manufacturer’s instructions, cell viability was measured using the Cell Proliferation Kit I (Roche, Basel, Switzerland). The absorbance of the formazan product was determined by measuring the absorption at 570 nm and subtracted from the absorbance at 660 nm.
(§3) The SH-SY5Y cells with a density of 10 000 cells (for HEK293 5000 cells) per well (total volume of 100 μL) were added to each well of a 96-well tissue culture plate (VWR North American) and incubated overnight at 37 °C with 5% CO2. […] Finally, the absorbance was measured at 570 and 660 nm using a CLARIO star plate reader (BMG labtech, Ortenberg, Germany), and the cell viability was calculated using eq 2: [drawing 2] […]

HEK293 cells = experiment: MTT cell viability assay, HEK293; type: cell-based, human; settings: 20 and 40 μM peptide, overnight, n = 3
Description: as §1, §2, §3

SMILES | Aβ42 in QIAD fraction 6 (oligomers) (Aβ42 oligomers) | sFIDA effect on Aβ42 aggregates (Aβ42 aggregates; Aβ42 aggregates treated with peptide, TIRFM) | ThT signal / Aβ42 aggregation compared to Aβ42 alone (Aβ42) | Aβ42 in QIAD fractions 4–5 (oligomers) (Aβ42 oligomers) | sFIDA signal reduction compared with the control (Aβ42 aggregates) | cytotoxicity in SH-SY5Y cells (SH-SY5Y cells) | cytotoxicity in HEK293 cells (HEK293 cells)
COC(=O)[C@@H](CCCCN)NC(=O)[C@@H](CCSC)NC(=O)[C@@H](CC(=O)O)NC(=O)[C@@H](CS)NC(=O)[C@@H](CCCNC(=N)N)NC(=O)[C@@H](Cc1c[nH]c2ccccc12)NC(=O)[C@@H](CCCNC(=N)N)NC(=O)[C@@H](Cc1c[nH]c2ccccc12)NC(=O)[C@@H](CCCCN)NC(=O)[C@@H](CS)NC(=O)[C@@H](CS)NC(=O)[C@@H](CCCCN)NC(=O)[C@@H](CCCCN)NC(C)=O [CDP-1D] (Ac-[dK][dK][dC][dC][dK][dW][dR][dW][dR][dC][dD][dM][dK]-OMe; N-terminus and C-terminus assumed) | significant reduction | decrease in aggregates | – | – | – | – | –
COC(=O)[C@H](CCCCN)NC(=O)[C@H](CCCCN)NC(=O)[C@H](CS)NC(=O)[C@H](CS)NC(=O)[C@H](CCCCN)NC(=O)[C@H](Cc1c[nH]c2ccccc12)NC(=O)[C@H](CCCNC(=N)N)NC(=O)[C@H](Cc1c[nH]c2ccccc12)NC(=O)[C@H](CCCNC(=N)N)NC(=O)[C@H](CS)NC(=O)[C@H](CC(=O)O)NC(=O)[C@H](CCSC)NC(=O)[C@H](CCCCN)NC(C)=O [CDP-1] (Ac-KMDCRWRWKCCKK-OMe; C-terminus assumed) | – | – | no Aβ42 aggregation was determined | not detected | 61.1% | nontoxic | nontoxic
COC(=O)[C@H](CCCCN)NC(=O)[C@H](CCCCN)NC(=O)[C@H](CO)NC(=O)[C@H](CO)NC(=O)[C@H](CCCCN)NC(=O)[C@H](Cc1c[nH]c2ccccc12)NC(=O)[C@H](CCCNC(=N)N)NC(=O)[C@H](Cc1c[nH]c2ccccc12)NC(=O)[C@H](CCCNC(=N)N)NC(=O)[C@H](CO)NC(=O)[C@H](CC(=O)O)NC(=O)[C@H](CCSC)NC(=O)[C@H](CCCCN)NC(C)=O [CDP-2] (Ac-KMDSRWRWKSSKK-OMe) | – | – | four times smaller | not detected | 95.2% | nontoxic | nontoxic
